Experimental data reported in patent EP0658342A1, “Antineoplastic pharmaceutical composition containing a fumagillol derivative” (Takeda Chemical Industries, Ltd., priority 1993, dated 1995).

System: Hormone-independent human prostatic cancer PC-3 strain cells
Assay: Tumor growth inhibitory activity against subcutaneously transplanted PC-3 tumors in Balb/c nu/nu mice (Experiments 1 and 2)
Type: in vivo
Conditions: one-week intervals from 17th day; for Tumor size gain (mm³) mean±SD: Experiment 1, s.c. PC-3, Compound A 100 mg/kg s.c. (maltosyl-β-cyclodextrin inclusion compound), gain over size at first administration; for Tumor size ratio (T/C %): treated vs control group; for Tumor size gain (mm³) means±SD: Experiment 2, s.c. PC-3, Compound A 100 mg/kg s.c. (maltosyl-β-cyclodextrin inclusion compound)
Procedure: Hormone-independent human prostatic cancer PC-3 strain cells (hereinafter abbreviated as PC-3 cells) subcultured in vitro using a petri dish for tissue culture were removed from the dish wall by using 0.25% trypsin. The cells thus obtained were rinsed with Ham F-12K medium containing 10% serum and suspended in PBS (phosphate-buffered saline) so that the concentration of the cells became 3 x 10⁷/ml, and 100 µl of the resulting suspension was transplanted to the central part of the right side of the abdomens of Balb/c nu/nu mice (9 weeks old, male) with an injection syringe (25G needle). The tumor size was determined on the 17th day. The mice were divided into groups so that the mean tumor size of each groups was 96 to 97 mm³. Then administration of the drug prepared by the following method was started. The tumor size was determined with a caliper in terms of the major axis (a) and minor axis (b), and calculated from the following formula: 0.5 x a x b².
A 5% glucose solution was added to an inclusion compound of Compound A and maltosyl-β-cyclodextrin obtained in Reference Example 1 to adjust a dosage volume to 10 µl/g body weight of each mouse, and the resulting solution was administered to dorsal subcutaneous parts of mice.
The injection Randa (trade name, manufactured by Nippon Kayaku K.K., Japan) was used as cisplatin, dissolved in saline, adjusted to a dosage volume of 10 µl/g body weight of each mouse, and intraperitoneally administered to mice.
In the case of administration of Compound A alone and cisplatin alone, the first administration was carried out on the 17th day after the transplantation, and thereafter administrations were carried out at one-week intervals. In the case of concomitant administration of Compound A and cisplatin, cisplatin was administered on the 17th day after the transplantation, and Compound A was administered on the 21th day after the transplantation. Thereafter, each drug was administered at one-week intervals.
Tumor growth inhibitory activity was evaluated on the 49th day after the transplantation as follows. Each tumor size was determined on the 49th day, the tumor size on the day of the first administration was subtracted from the size on the 49th day, and the ratio (T/C%) of the tumor size of the drug administration group (T) to that of the control group (C) was calculated. The dose of the drug is indicated in terms of the weight of the drug (mg/kg body weight) per administration.
Mice bearing PC-3 cancer cells were prepared according to the same manner as that in Experiment 1. The tumor size was determined on the 17th day after the transplantation. Mice were divided into groups so that the average tumor size of each group was 108 to 109 mm³. Then drug administration was started. Preparation of the drug, determination of the tumor size, evaluation of tumor growth inhibitory activity, etc., were carried out according to the methods of Experiment 1.
In the case of administration of Compound A alone and cisplatin alone, the first administration was carried out on the 17th day after the transplantation, and thereafter administrations were carried out at one-week intervals.
The following three combinations of the drugs were administered. Cisplatin and Compound A were administered on the 17th day and 21th day after the transplantation, respectively, and thereafter each drug was administered at one-week intervals. These administrations are hereinafter referred to as Combination 1. Compound A and cisplatin were administered on the 17th day and 21th day after the transplantation, respectively, and thereafter each drug was administered at one-week intervals. These administrations are hereinafter referred to as Combination 2. Compound A and cisplatin were administered simultaneously on the 17th day after the transplantation, and thereafter each drug was administered at on-week intervals. These administrations are hereinafter referred to as Combination 3. […]

[1] = cisplatin 4 mg/kg i.p., evaluated 49th day
[2] = Experiment 1, s.c. PC-3, Compound A 100 mg/kg s.c., cisplatin 4 mg/kg i.p., evaluated 49th day
[3] = cisplatin 5 mg/kg i.p., evaluated 42th day
[4] = Experiment 2, s.c. PC-3, Compound A 100 mg/kg s.c., cisplatin 5 mg/kg i.p., evaluated 42th day

| Molecule | Tumor size gain (mm³) mean±SD [1] | Tumor size ratio (T/C %) [2] | Tumor size gain (mm³) means±SD [3] | Tumor size ratio (T/C %) [4] |
| --- | --- | --- | --- | --- |
| N.N.[Cl][Pt][Cl] [Cisplatin, cisplatin] | 230±182 mm³ | 19% | 345±163 mm³ | 26% |
| 6-O-(N-chloroacetylcarbamoyl)fumagillol [Compound A] | 591±242 mm³ | 49% | 400±126 mm³ | 30% |
